One block for each compound: values may come before it.
How the values were obtained:
Type in all cases: ADME, Microsome
[1] = Drug metabolism in CD-1 mouse liver microsomes assessed as (3S,4S)-N-(3-chloro-4-hydroxyphenyl)-2-isobutyl-1-oxo-3-(thiophen-2-yl)-1,2,3,4-tetrahydroisoquinoline-4-carboxamide formation
[2] = Drug metabolism in CD-1 mouse liver microsomes assessed as oxidation at N-2 isobutyl group
[3] = Half life in CD-1 mouse liver microsomes in presence of NADPH by UPLC-MS analysis; details: for t1/2: mouse, microsomes
[4] = Drug metabolism in CD-1 mouse liver microsomes assessed as ((3S,4S)-N-(3-hydroxyphenyl)-2-isobutyl-1-oxo-3-(thiophen-2-yl)-1,2,3,4-tetrahydroisoquinoline-4-carboxamide formation
[5] = Drug level in CD-1 mouse liver microsomes treated with (3S,4S)-N-(3-cyanophenyl)-2-isobutyl-1-oxo-3-(thiophen-2-yl)-1,2,3,4-tetrahydroisoquinoline-4-carboxamide
[6] = Drug level in CD-1 mouse liver microsomes treated with (3S,4S)-N-(3-chloro-4-methoxyphenyl)-2-isobutyl-1-oxo-3-(thiophen-2-yl)-1,2,3,4-tetrahydroisoquinoline-4-carboxamide

SMILES: COc1ccc(NC(=O)[C@H]2c3ccccc3C(=O)N(CC(C)C)[C@@H]2c2cccs2)cc1Cl (racemic)
- Drug metabolism [1]: Metabolite_Detected
- Drug metabolism [2]: Metabolite_Detected
- half-life ([3]; CD-1, mouse, liver microsomes): < 30 min

SMILES: CC(C)CN1C(=O)c2ccccc2[C@H](C(=O)Nc2cccc(C#N)c2)[C@H]1c1cccs1 (racemic)
- Drug metabolism [4]: Metabolite_Detected
- Drug metabolism [2]: Metabolite_Detected
- t1/2 [3]: 16.8 min

SMILES: CC(C)CN1C(=O)c2ccccc2[C@H](C(=O)Nc2cccc(O)c2)[C@H]1c1cccs1 (relative stereo)
- Drug metabolism [5]: Metabolite_Detected

SMILES: CC(C)CN1C(=O)c2ccccc2[C@H](C(=O)Nc2ccc(O)c(Cl)c2)[C@H]1c1cccs1 (relative stereo)
- Drug metabolism [6]: Metabolite_Detected

SMILES: N#Cc1cc(NC(=O)[C@H]2c3ccccc3C(=O)N(CC(F)(F)F)[C@@H]2c2cccnc2)ccc1F (relative stereo) [SJ-733]
- t1/2 [3]: 97.8 min

Next, values leading:

- t1/2 [3]: 19.8 min
SMILES: CC(C)CN1C(=O)c2ccccc2[C@H](C(=O)Nc2ccc(F)c(C#N)c2)[C@H]1c1cn[nH]c1 (racemic)

- t1/2 [3]: 72.6 min
SMILES: CC(C)CN1C(=O)c2ccccc2[C@H](C(=O)Nc2ccc(F)c(C#N)c2)[C@H]1c1ccc(C#N)s1 (racemic)

- t1/2 [3]: > 240 min
SMILES: N#Cc1cc(NC(=O)[C@H]2c3ccccc3C(=O)N(CC(F)(F)F)[C@@H]2c2cn[nH]c2)ccc1F (relative stereo)

Reference: ChEMBL document CHEMBL4428058, “Hit-to-Lead Studies for the Antimalarial Tetrahydroisoquinolone Carboxanilides” (J Med Chem, 2016)
